The source made the active and inactive calls. The rule behind the calls is not given here.
Tests used:
[1] = biological target: T1, Acetylcholinesterase (Rattus norvegicus, UniProt P37136); test: Inhibition of wistar rat brain AChE using acetylthiocholine iodide as substrate preincubated for 10 mins followed by substrate addition and measured after 5 mins by DTNB reagent based spectrophotometric Ellman's method
T1 sequence (P37136 whole entry): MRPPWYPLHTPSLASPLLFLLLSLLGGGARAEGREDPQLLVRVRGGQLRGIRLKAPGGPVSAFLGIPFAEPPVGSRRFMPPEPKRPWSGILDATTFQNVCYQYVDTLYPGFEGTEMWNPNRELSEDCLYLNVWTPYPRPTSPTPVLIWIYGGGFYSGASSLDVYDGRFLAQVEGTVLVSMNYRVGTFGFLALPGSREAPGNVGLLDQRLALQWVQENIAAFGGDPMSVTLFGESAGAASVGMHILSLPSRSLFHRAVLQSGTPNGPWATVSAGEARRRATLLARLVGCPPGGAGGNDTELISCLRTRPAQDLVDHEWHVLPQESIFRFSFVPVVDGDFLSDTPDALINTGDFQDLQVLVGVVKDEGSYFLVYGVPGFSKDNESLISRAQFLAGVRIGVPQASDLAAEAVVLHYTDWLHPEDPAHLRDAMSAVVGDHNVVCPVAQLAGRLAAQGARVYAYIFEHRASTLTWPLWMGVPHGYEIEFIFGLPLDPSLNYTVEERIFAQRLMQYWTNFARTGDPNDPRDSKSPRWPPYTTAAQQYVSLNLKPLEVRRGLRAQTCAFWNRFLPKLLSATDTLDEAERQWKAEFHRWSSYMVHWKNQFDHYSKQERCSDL

[2] = test system: BV-2; test: Neuroprotective activity against LPS-induced neuronal damage in mouse BV-2 cells assessed as cell viability at 1 uM preincubated with compound for 1 hrs followed by LPS addition and measured after 24 hrs by Muse cell analyzer (reference value: 79.2 +/- 1.1 %); format: functional; conditions: time 25 hrs, read-out: Activity
[3] = test system: BV-2; test: Antioxidant activity in LPS-induced mouse BV-2 cells assessed as reduction in ROS production at 1 uM preincubated with compound for 1 hrs followed by LPS addition and measured after 24 hrs by Muse cell analyzer relative to control; format: functional; set-up: scale not given: the % may be the effect or the level left
[4] = test system: Caenorhabditis elegans; test: Anti-alzheimer activity in amyloid-beta aggregation induced Caenorhabditis elegans GMC101 assessed as increase in worm motility at 10 uM administered from day 4 of adulthood and measured on day 5 to 7; format: functional, organism-based; conditions: time 4.0 day
[5] = test system: Neuronal like cell; test: Neuroprotective activity against LPS/TNF-alpha-induced damage in human neuronal like cells assessed as increase in cell proliferation at 10 uM preincubated with compounds for 24 hrs followed by compound washout and measured after 16 hrs of LPS/TNF-alpha addition by MTS assay; format: functional, cell-based
[6] = test system: Neuronal like cell; test: Antioxidant activity in human neuronal like cells assessed as reduction in LPS/TNF-alpha-induced ROS production at 10 uM preincubated with compound for 24 hrs followed by compound washout and measured after 16 hrs of LPS/TNF-alpha addition by H2DCF-DA based fluorescence analysis; format: functional
[7] = biological target: Amyloid-beta precursor protein (Homo sapiens) (UniProt P05067); test: Inhibition of amyloid beta (1 to 42) (unknown origin) self aggregation at 10 uM preincubated with compound for 24 hrs followed by compound washout and measured after 24 hrs by ThT fluorescence based spectrophotometric analysis
[8] = Induction of H2S release in PBS at pH 7.4 assessed as H2S concentration at 1 mM measured after 30 mins in presence of L-cysteine by Apollo-4000 free radical analyzer; format: functional
[9] = test system: Caenorhabditis elegans; test: Anti-alzheimer activity in amyloid-beta aggregation induced Caenorhabditis elegans GMC101 assessed as increase in worm fitness at 10 uM administered from day 4 of adulthood and measured on day 7 relative to control; format: functional; conditions: time 4 day
[10] = test system: A549; test: Induction of autophagy in human A549 cells assessed as increase in LC3-II level at >3 uM measured after 24 hrs by Western blotting analysis; format: functional, cell-based
[11] = Neuroprotective activity against LPS/TNF-alpha-induced damage in human neuronal like cells assessed as restoration of cell function at 10 uM preincubated with compounds for 72 hrs followed by compound washout and measured after 16 hrs of LPS/TNF-alpha addition by MTS assay relative to control; format: functional
[12] = test system: Caenorhabditis elegans; test: Anti-alzheimer activity in amyloid-beta aggregation induced Caenorhabditis elegans GMC101 assessed as improvement in displacement per bend of worm at 10 uM administered from day 4 of adulthood and measured on day 7; format: functional, organism-based; conditions: time 4.0 day
[13] = test system: Caenorhabditis elegans; test: Anti-alzheimer activity in amyloid-beta aggregation induced Caenorhabditis elegans GMC101 assessed as improvement in speed of worm movement at 10 uM administered from day 4 of adulthood and measured on day 7; format: functional, organism-based; conditions: time 4.0 day
[14] = test system: A549; test: Induction of autophagy in human A549 cells assessed as decrease in p62 level at >3 uM measured after 24 hrs by Western blotting analysis relative to control; format: functional; set-up: scale not given: the % may be the effect or the level left
[15] = test system: A549; test: Induction of autophagy in human A549 cells transfected with LC3-GFP plasmid assessed as increase in number of LC3 puncta at >3 uM measured after 24 hrs by high-content confocal microscopic analysis; format: functional, cell-based
[16] = test system: A549; test: Cytotoxicity against human A549 cells transfected with LC3-GFP plasmid assessed as decrease in cell number upto 10 uM; format: toxicity, cell-based; conditions: a549, 10 µM
[17] = test system: BV-2; test: Neuroprotective activity against LPS-induced neuronal damage in mouse BV-2 cells assessed as increase in cell viability at 1 uM preincubated with compound for 1 hrs followed by LPS addition and measured after 24 hrs by Muse cell analyzer; format: functional, cell-based; conditions: time 25.0 hrs

Chain of Amyloid-beta precursor protein (Homo sapiens) (P05067 whole entry): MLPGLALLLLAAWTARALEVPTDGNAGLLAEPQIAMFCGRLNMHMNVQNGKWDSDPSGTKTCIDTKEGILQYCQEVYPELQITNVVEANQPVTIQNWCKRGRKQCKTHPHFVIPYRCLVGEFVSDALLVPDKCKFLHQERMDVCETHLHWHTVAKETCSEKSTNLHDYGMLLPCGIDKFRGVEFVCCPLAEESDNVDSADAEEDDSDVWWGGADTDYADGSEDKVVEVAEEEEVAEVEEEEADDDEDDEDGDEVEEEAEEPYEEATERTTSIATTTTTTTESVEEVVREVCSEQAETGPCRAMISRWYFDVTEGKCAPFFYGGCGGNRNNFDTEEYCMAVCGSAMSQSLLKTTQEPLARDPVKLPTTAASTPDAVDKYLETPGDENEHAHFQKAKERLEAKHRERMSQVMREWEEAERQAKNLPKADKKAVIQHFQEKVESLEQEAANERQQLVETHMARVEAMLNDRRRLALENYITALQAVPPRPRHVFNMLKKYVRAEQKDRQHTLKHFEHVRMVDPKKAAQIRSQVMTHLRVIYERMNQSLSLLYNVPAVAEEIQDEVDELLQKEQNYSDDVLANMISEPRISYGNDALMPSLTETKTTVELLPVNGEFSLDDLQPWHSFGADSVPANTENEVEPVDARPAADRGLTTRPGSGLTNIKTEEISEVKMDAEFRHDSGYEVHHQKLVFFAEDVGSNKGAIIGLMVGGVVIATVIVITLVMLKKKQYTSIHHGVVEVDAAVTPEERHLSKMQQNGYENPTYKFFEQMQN

Row | Structure (SMILES) | IC50 [1] [nM] | viability at 1 µM [2] [%] | Activity ([3]; time 25 hrs) [%] | Activity [17] | other results
1 | CCN(C)C(=O)Oc1cccc(CN=C=S)c1 | 2190 | 85.3 | 10 |  | 
2 | [Na+].[SH-] [SODIUM HYDROSULFIDE] |  | 87.2 | 27 |  | 
3 | CCN(C)C(=O)Oc1cccc(C(N)=S)c1 | 440 | 85.7 | 23 |  | Activity [4]: Active; Activity [5]: Active; Activity [6]: Active; inhibition [7]: Active; Comparable Activity With Nahs Observed; Activity [8]: 10 µM; Activity [9]: 10.5%; Activity [10]: Active; Activity [11]: 100%; Activity [12]: Active; Activity [13]: Active; Slight Effect Observed; Activity [14]: ~50%; Activity [15]: Active; Activity [16]: Non-toxic
4 | CCN(C)C(=O)Oc1cccc(N=C=S)c1 | 870 | 85.5 | 10 |  | 
5 | CCN(C)C(=O)Oc1cccc(NC(=O)COc2ccc(-c3cc(=S)ss3)cc2)c1 | 410 |  |  | inactive | Activity ([3]; time 25.0 hrs): inactive
6 | CCN(C)C(=O)Oc1cccc([C@H](C)N(C)C)c1 [RIVASTIGMINE] |  | 84.1 | ~10 |  | 
7 | CCN(C)C(=O)Oc1cccc(NC(=O)c2ccc(N=C=S)cc2)c1 | 510 |  | 10 | inactive | 
8 | CCN(C)C(=O)Oc1cccc(CCN=C=S)c1 | 1370 |  | 10 | inactive | 

Reference: ChEMBL document CHEMBL6087455 (Eur J Med Chem, 2025)
